Reference: ChEMBL document CHEMBL5653615 (J Biol Chem, 2013)

Legend:
[1] = target: Casein kinase I isoform gamma-2 (Homo sapiens) (UniProt P78368); experiment: Inhibition of human CK1g2 at 500 nM by HotSpot assay relative to control
[2] = target: T1, Megakaryocyte-associated tyrosine-protein kinase (Homo sapiens) (UniProt P42679); experiment: Inhibition of human CTK at 500 nM by HotSpot assay relative to control
T1 sequence (whole entry): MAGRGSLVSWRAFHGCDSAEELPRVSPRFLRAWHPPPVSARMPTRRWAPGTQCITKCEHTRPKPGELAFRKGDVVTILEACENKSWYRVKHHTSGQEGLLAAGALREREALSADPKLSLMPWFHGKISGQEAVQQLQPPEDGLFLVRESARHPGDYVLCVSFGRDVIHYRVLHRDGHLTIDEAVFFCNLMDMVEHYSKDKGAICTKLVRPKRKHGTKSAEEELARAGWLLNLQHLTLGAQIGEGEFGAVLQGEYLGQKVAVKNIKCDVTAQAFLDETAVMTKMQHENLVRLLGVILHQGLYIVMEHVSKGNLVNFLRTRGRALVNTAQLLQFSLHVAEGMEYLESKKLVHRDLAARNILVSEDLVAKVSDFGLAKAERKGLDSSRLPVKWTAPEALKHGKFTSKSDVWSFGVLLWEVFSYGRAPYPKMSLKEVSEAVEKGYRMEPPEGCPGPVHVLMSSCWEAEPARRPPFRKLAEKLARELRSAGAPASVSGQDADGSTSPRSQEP

[3] = target: Ephrin type-A receptor 2 (Homo sapiens) (UniProt P29317); experiment: Inhibition of human EPHA2 at 500 nM by HotSpot assay relative to control
Chain of Ephrin type-A receptor 2 (Homo sapiens) (P29317 whole entry): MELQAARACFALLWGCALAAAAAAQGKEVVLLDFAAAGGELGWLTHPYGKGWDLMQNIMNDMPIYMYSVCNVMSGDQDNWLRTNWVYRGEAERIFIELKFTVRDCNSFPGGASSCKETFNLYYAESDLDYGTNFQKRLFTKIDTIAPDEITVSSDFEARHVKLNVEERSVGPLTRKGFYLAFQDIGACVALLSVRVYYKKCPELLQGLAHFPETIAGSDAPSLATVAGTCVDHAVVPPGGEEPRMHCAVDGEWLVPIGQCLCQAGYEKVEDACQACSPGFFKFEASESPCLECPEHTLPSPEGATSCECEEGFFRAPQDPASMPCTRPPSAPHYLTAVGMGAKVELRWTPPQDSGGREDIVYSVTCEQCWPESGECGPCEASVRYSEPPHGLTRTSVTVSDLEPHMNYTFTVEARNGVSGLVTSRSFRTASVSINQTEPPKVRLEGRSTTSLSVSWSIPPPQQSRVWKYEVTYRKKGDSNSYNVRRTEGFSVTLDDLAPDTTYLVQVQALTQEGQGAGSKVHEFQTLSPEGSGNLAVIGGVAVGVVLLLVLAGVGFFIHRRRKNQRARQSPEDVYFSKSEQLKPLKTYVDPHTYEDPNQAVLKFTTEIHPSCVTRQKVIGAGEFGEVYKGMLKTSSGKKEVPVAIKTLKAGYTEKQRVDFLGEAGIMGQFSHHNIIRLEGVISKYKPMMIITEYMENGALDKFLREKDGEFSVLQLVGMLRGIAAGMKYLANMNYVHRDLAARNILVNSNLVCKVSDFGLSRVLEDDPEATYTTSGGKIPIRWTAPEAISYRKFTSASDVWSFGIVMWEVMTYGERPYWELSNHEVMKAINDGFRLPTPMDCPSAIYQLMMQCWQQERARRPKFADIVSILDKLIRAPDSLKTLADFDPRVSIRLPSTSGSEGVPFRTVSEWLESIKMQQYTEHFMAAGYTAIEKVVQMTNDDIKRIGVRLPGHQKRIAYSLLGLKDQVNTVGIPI

[4] = target: T2, Mitogen-activated protein kinase kinase kinase 2 (Homo sapiens) (UniProt Q9Y2U5); experiment: Inhibition of human MEKK2 at 500 nM by HotSpot assay relative to control
T2 sequence (whole entry): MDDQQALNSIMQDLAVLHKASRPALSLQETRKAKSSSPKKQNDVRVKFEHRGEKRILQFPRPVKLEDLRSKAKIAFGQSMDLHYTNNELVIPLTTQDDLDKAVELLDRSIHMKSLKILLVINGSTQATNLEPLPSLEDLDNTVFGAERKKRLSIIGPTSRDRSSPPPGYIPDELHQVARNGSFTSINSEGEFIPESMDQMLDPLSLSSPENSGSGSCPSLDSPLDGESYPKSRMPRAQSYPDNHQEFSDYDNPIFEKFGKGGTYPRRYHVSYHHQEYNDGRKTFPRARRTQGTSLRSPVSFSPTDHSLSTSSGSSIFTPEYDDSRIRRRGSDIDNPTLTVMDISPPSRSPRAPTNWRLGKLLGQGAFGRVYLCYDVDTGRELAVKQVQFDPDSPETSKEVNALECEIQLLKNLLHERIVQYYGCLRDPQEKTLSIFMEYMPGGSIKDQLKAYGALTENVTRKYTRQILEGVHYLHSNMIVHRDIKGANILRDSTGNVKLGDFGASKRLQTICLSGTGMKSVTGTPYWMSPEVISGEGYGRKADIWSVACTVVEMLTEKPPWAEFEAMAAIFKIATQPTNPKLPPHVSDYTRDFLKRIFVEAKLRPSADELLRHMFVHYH

[5] = target: T3, Serine/threonine-protein kinase Nek3 (Homo sapiens) (UniProt P51956); experiment: Inhibition of human NEK3 at 500 nM by HotSpot assay relative to control
T3 sequence (whole entry): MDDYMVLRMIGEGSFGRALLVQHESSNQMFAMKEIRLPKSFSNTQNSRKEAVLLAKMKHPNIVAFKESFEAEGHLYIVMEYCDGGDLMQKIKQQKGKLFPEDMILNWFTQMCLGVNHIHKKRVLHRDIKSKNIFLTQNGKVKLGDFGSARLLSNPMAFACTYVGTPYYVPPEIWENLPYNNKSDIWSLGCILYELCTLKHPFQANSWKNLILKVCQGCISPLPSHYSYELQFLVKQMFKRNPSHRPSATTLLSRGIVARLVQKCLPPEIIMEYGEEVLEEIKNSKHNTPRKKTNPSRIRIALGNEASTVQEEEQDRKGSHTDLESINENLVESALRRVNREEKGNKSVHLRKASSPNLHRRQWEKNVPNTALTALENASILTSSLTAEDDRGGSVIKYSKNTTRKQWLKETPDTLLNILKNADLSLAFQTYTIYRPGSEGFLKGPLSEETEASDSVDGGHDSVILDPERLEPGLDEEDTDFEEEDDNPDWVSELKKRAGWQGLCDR

[6] = target: Serine/threonine-protein kinase PAK 4 (Homo sapiens) (UniProt O96013); experiment: Inhibition of human PAK4 at 500 nM by HotSpot assay relative to control
Chain of Serine/threonine-protein kinase PAK 4 (Homo sapiens) (O96013 whole entry, looked up): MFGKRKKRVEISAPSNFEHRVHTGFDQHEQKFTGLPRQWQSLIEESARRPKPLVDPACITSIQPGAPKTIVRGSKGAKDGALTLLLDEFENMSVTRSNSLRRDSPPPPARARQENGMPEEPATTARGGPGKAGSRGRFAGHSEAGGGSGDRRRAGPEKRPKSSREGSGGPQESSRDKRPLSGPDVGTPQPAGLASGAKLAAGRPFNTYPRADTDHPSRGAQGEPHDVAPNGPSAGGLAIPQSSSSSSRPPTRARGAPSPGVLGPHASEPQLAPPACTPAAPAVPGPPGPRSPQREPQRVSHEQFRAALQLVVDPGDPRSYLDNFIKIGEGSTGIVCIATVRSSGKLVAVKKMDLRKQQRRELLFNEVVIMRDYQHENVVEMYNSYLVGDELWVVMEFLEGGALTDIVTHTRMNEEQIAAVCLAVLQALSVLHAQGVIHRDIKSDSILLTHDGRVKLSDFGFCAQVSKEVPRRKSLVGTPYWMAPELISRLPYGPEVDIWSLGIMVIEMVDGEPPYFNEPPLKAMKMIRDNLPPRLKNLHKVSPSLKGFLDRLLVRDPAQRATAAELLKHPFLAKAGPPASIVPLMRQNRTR

[7] = target: Serine/threonine-protein kinase PLK3 (Homo sapiens) (UniProt Q9H4B4); experiment: Inhibition of human PLK3 at 500 nM by HotSpot assay relative to control
Chain of Serine/threonine-protein kinase PLK3 (Homo sapiens) (Q9H4B4 whole entry, looked up): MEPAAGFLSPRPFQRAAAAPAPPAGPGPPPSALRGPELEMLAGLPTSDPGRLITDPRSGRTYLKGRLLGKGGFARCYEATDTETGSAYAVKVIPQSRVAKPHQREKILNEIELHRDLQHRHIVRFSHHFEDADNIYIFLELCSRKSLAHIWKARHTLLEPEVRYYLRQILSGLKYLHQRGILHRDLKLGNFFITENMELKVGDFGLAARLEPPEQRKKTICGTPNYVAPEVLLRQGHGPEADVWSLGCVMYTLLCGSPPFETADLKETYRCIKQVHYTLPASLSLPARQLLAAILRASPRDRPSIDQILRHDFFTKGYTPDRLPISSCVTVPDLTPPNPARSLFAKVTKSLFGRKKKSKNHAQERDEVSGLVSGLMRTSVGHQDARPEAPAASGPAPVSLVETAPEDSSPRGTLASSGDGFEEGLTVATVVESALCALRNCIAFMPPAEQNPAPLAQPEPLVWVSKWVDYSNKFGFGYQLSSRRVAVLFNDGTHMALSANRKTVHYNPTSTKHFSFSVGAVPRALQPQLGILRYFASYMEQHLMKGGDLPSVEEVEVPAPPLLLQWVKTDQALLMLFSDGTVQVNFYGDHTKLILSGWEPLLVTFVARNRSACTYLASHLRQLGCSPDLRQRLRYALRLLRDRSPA

[8] = target: RAF proto-oncogene serine/threonine-protein kinase (Homo sapiens) (UniProt P04049); experiment: Inhibition of human RAF1 at 500 nM by HotSpot assay relative to control
Chain of RAF proto-oncogene serine/threonine-protein kinase (Homo sapiens) (P04049 whole entry): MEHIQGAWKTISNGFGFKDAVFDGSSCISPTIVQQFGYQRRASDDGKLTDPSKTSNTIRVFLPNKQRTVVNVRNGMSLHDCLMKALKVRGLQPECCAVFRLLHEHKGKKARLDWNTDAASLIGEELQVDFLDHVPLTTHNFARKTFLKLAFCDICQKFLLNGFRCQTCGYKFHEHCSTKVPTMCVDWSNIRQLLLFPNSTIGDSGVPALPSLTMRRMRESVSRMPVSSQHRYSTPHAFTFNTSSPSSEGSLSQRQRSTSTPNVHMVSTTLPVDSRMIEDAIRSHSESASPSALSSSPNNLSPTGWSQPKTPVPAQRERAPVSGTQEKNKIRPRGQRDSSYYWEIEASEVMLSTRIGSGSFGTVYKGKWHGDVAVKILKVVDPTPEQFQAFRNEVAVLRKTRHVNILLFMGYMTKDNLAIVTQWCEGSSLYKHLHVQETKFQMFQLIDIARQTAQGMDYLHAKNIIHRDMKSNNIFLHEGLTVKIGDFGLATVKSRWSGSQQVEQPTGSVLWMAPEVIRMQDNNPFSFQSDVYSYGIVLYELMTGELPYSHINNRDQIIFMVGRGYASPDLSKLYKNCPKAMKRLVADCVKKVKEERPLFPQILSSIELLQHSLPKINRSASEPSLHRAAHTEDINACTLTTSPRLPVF

[9] = target: T4, Serine/threonine-protein kinase TAO3 (Homo sapiens) (UniProt Q9H2K8); experiment: Inhibition of human JIK at 500 nM by HotSpot assay relative to control
T4 sequence (whole entry): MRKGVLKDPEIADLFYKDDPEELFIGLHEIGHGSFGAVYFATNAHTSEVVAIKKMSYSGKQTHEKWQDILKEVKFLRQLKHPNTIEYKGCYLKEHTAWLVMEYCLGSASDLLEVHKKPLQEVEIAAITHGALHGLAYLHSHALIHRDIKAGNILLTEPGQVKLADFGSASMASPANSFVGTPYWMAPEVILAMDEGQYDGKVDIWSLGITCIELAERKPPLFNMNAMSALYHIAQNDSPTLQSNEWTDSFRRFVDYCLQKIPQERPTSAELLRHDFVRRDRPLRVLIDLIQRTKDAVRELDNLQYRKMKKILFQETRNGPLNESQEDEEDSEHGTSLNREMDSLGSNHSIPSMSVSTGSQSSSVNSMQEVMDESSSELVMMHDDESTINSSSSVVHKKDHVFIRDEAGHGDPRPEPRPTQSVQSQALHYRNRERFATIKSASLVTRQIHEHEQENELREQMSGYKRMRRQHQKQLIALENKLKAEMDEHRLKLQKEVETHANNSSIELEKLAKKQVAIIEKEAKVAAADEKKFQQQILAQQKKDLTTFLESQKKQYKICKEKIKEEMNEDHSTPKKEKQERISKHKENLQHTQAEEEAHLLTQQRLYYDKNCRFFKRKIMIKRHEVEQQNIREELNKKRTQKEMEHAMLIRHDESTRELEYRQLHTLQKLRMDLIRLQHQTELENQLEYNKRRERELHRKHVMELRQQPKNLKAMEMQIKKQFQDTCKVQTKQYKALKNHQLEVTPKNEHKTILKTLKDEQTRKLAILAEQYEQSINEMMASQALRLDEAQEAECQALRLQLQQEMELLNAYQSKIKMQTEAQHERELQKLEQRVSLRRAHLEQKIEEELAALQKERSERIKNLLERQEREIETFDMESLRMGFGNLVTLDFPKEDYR

Chain of Casein kinase I isoform gamma-2 (Homo sapiens) (P78368 whole entry, looked up, canonical isoform): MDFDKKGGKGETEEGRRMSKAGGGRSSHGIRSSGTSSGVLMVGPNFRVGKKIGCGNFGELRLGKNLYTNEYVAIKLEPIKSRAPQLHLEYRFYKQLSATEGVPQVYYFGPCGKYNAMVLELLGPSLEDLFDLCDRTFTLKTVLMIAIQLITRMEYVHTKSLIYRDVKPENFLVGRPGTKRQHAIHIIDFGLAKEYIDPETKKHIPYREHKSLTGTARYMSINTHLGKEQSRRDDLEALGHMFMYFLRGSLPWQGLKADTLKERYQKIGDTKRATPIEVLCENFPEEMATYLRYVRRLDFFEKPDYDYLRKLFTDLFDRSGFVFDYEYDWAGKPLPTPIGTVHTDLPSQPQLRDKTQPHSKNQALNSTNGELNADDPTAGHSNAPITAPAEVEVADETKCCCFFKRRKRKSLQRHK

Row | SMILES | inhibition [1] [%] | inhibition [2] [%] | inhibition [3] [%] | inhibition [4] [%] | inhibition [5] [%] | inhibition [6] [%] | inhibition [7] [%] | inhibition [8] [%] | inhibition [9] [%]
1 | Nc1n[nH]c2nnc(-c3c(-c4ccccc4)nn4ccccc34)cc12 | -9.31 | 4.4 | 1.69 | 2.22 | 17.3 | -1.44 | -0.08 | 4.42 | -1.15
2 | Oc1n[nH]c2nnc(-c3c(-c4ccccc4)nn4ccccc34)cc12 | 3.49 | 1.78 | -0.91 | -0.17 | 12.8 | -0.93 | 1.17 | 1.96 | 4.08
